Laboratory results from patent US20240174625A1, “COMPOSITIONS AND METHODS FOR TREATING TAUOPATHIES” (The Regents of the University of California, priority 2021, published 2024).

test system: HEK293T cells; assay: Cell viability assay (CellTiter Glo); format: cell-based, human; details: Homo sapiens, HEK-293T; log10 transformed; IC50 = concentration that suppresses 50% cell viability; HEK293T cells
Method: HEK293T cells (AATC) were maintained in complete media and cell viability assay was conducted in a fresh-prepared minimal medium containing essential amino acids, vitamin, AlbuMax (Invitrogen 11021-029) in 1×HBS buffer. White 384-well assay plates (Greiner EK-30080) were coated with poly-L-ornithine (0.1 mg/ml) overnight and washed once with 1×PBS. 15 μl minimal medium was then added to each well. 250 nl of compounds dissolved in OmniSolve DMSO were pinned to each well via Biomek FX^P Liquid Handling Automation from compound source plates. Cells were harvested, resuspended in minimal medium, and seeded at 16,500 cells/15 μl/well in the 384-well assay plates. 24 hrs later, 25 μl/well CellTiter Glo reagent (Promega G7572) was added into each well, and luminescence (0.5 second integration time) was acquired following manufacture's protocol. Luminescence count normalized to DMSO control is used as a readout of cell viability.
To investigate the effects of JMM compounds that enhance NPEPPS activity and assess their cellular toxicity, 139 compounds in the JMM series (i.e., JMM001-JMM139) were tested in dose responses (20-step, 2-fold dilution) using NPEPPS activity and viability assays in HEK293T cells. 76 compounds harboring different modifications produce concentration-dependent enhancement on NPEPPS activity compared to DMSO control (FIG. 4). […] A therapeutic index (TI, a ratio of IC50 over EC50) is used to evaluate the relative safety profiles of the compounds. […] 16 JMM compounds show both improved potency and reduced toxicity (EC50<10 μM and TI>10, Table 1).

SMILES	IC50 [µM]
c1ccc(COc2ccc3snc(NC4c5ccccc5-c5ccccc54)c3c2)cc1 [JMM089]	3310
O=C(Nc1nsc2ccccc12)c1ccc2c(c1)OCCO2 [JMM006]	282
c1ccc(COc2ccc3snc(NCc4ccc(Cc5ccccc5)cc4)c3c2)cc1 [JMM120, N-(4-benzylbenzyl)-5-(benzyloxy)benzo[d]isothiazol-3-amine]	1050
COc1ccc(CNc2nccc3ccccc23)cc1OC [JMM034]	186
c1ccc(COc2ccc3snc(NCc4ccc(N(Cc5ccccc5)Cc5ccccc5)cc4)c3c2)cc1 [JMM126, 5-(Benzyloxy)-N-(4-(dibenzylamino)benzyl)benzo[d]isothiazol-3-amine]	1260
O=C1c2ccccc2C(=O)N1c1nsc2cnccc12 [JMM085]	3160
COc1ccc(CNc2ncnc3ccccc23)cc1OC [JMM036]	135
O=C(Nc1nsc2ccccc12)c1ccc(C(F)(F)F)cc1 [JMM007]	1740
COc1cccc(CNc2nsc3ccccc23)c1 [JMM010]	97.7
c1ccc2c(c1)CN(c1nsc3ccccc13)C2 [JMM087]	229
c1ccc2c(CNc3nsc4ccccc34)nccc2c1 [JMM074]	1820
Cc1cc(C)c(COc2ccc(CNc3nsc4ccc(OCc5ccccc5)cc34)cc2)c(C)c1 [JMM123, 5-(Benzyloxy)-N-(4-((2,4,6-trimethylbenzyl)oxy)benzyl)benzo[d]isothiazol-3-amine]	661
CS(=O)(=O)N(Cc1ccc(C(F)(F)F)cc1)c1nsc2ccccc12 [JMM071]	10
c1ccc2c(CNc3nsc4ccccc34)c3ccccc3cc2c1 [JMM018]	9550
c1ccc(COc2ccc3snc(NCc4ccc(OCc5ccccc5)c5ccccc45)c3c2)cc1 [JMM116, 5-(Benzyloxy)-N-((4-(benzyloxy)naphthalen-1-yl)methyl)benzo[d]isothiazol-3-amine]	1000
c1ccc(COc2ccc3snc(NCc4ccc(COc5ccccc5)cc4)c3c2)cc1 [JMM124, 5-(Benzyloxy)-N-(4-(phenoxymethyl)benzyl)benzo[d]isothiazol-3-amine]	724
